Measured values reported in patent US20230270828A1, “COMPOSITION FOR USE IN THE TREATMENT OF VIRAL INFECTIONS” (BICT S.R.L., priority 2020, published 2023).
Where two headings read alike, the source gives them in different places. Marks after values point to notes of the source that are not given here.

Legend:
[1] = test system: Vero cells (Monkey Kidney Epithelial Cells)
[2] = test system: canine herpes virus, CHV-1; test: Antiviral checkerboard assay, Cf2Th cells infected with canine herpes virus CHV-1; type: cell-based
Procedure: This antiviral activity was evaluated using Cf2Th cells (canine thymocytes) infected with canine herpes virus, CHV-1.
Briefly, the Cf2Th cells were plated at a concentration of 5×10^5 cells/mL in 96-well multiwells (100 μL/well) and incubated at 37° C. in an atmosphere with 5% CO2.
Upon reaching about 90% confluence (48 h incubation), the medium was aspirated from each well, and replaced with 100 μL fresh medium containing a final virus concentration equal to 1×10^3 UFP/mL, and different concentrations of Lactoferricin and Grape Seed extract.
In particular, the different combinations between the two compounds had been previously prepared by crossing serial dilutions of the same, according to the protocol defined “broth microdilution checkerboard method”.
The cells were left in co-incubation with the virus and the compounds under examination for 48 h (37° C. -5% CO2).
At the end of the incubation, the wells characterized by a cell lysis given by the viral infection were discriminated from those in which the virus was inhibited by the compounds and therefore with viable cells. This evaluation was carried out both by direct observation under the microscope and by staining with methylene blue. […]
To determine the actual presence of synergy between the two compounds, the ratio below was calculated, defined as the FIC Index (FIC I). […]

SARS-CoV-2 [3] = type: cell-based
SARS-CoV-2 [4] = test: Virucide activity against SARS-CoV-2, plaque assay; type: cell-based; conditions: scheme B+C; for SARS-CoV-2 infectivity reduced by: plaque assay

Compound: CCN(CC)CCCC(C)Nc1ccnc2cc(Cl)ccc12 (centres unmarked) [Chloroquine, chloroquine, reference compound]
- CC10 ([1]; Vero cells, 72 h, MTT): 20.93 ± 4.39 µM

Compound: Lactoferricin
- Minimum Antiviral Concentration Compound alone ([2]; CHV-1, 48 h co-incubation): 3.125%
- Minimum Antiviral Concentration Compound in association ([2]; in association with Grape Seed Extract, CHV-1, 48 h): 0.781%

Compound: lactoferrin/lactoferricin [PREP 1]
- Mean ΔCt (SARS-CoV-2 [3]; 1.02 mg/ml, scheme A (preincubation of virus with compound)): 0.16
- Mean ΔCt (SARS-CoV-2 [3]; 1.02 mg/ml, scheme B+C (during and after inoculum)): −0.48
- Mean ΔCt (SARS-CoV-2 [3]; 1.02 mg/ml, scheme B+C+D (during, after inoculum and repeated)): −0.59
- Mean ΔCt (SARS-CoV-2 [3]; 2.03 mg/ml, scheme A (preincubation of virus with compound)): 0.36
- Mean ΔCt (SARS-CoV-2 [3]; 2.03 mg/ml, scheme B+C (during and after inoculum)): −0.50
- Mean ΔCt (SARS-CoV-2 [3]; 2.03 mg/ml, scheme B+C+D (during, after inoculum and repeated)): −1.11
- Mean ΔCt (SARS-CoV-2 [3]; 4.06 mg/ml, scheme A (preincubation of virus with compound)): 0.52
- Mean ΔCt (SARS-CoV-2 [3]; 4.06 mg/ml, scheme B+C (during and after inoculum)): −2.90
- Mean ΔCt (SARS-CoV-2 [3]; 4.06 mg/ml, scheme B+C+D (during, after inoculum and repeated)): −3.64
- mean ΔCt over schemes C, B+C and B+C+D (SARS-CoV-2 [3]; high dose, added after the inoculum, one or twice): −3.3
- CC10 ([1]; Vero cells, 72 h, MTT): >4.06* mg/ml
- CC50 ([1]; Vero cells, 72 h, MTT): >4.06* mg/ml
- maximum nontoxic concentration (assumed) ([1]; Vero cells, based on CC50/CC10 data): 4.06 mg/mL

Compound: polylysine [PREP 3]
- antiviral effect (SARS-CoV-2 [3]): No antiviral effect
- virus inhibition (antiviral and virucide activities) (SARS-CoV-2 [3]): more than 90%
- ΔCt, dose-dependent antiviral effect (SARS-CoV-2 [3]): −1.80 to −5.22
- antiviral effect (SARS-CoV-2 [3]; addition of a third dose (scheme B+C+D)): slight effect
- decrease in the viral replication (SARS-CoV-2 [3]; scheme B+C): more than 1 log
- maximum inhibition of the virus replication (SARS-CoV-2 [3]; scheme B+C): 93%
- antiviral effect (SARS-CoV-2 [3]; schemes A, B and C): no effect
- SARS-CoV-2 infectivity reduced by (SARS-CoV-2 [4]; 0.05 mg/ml): 20%
- percentage of virus replication compared to untreated infected cells (SARS-CoV-2 [4]; 0.05 mg/ml): 80%
- SARS-CoV-2 infectivity reduced by (SARS-CoV-2 [4]; 0.1 mg/ml): 30.2%
- percentage of virus replication compared to untreated infected cells (SARS-CoV-2 [4]; 0.10 mg/ml): 69.8%
- SARS-CoV-2 infectivity reduced by (SARS-CoV-2 [4]; 0.20 mg/ml): 48.8%
- percentage of virus replication compared to untreated infected cells (SARS-CoV-2 [4]; 0.20 mg/ml): 51.2%
- SARS-CoV-2 infectivity reduced by (SARS-CoV-2 [4]; 0.40 mg/ml): 96.3%
- percentage of virus replication compared to untreated infected cells (SARS-CoV-2 [4]; 0.40 mg/ml): 3.7%
- CC10 [1]: >0.40 mg/mL
